# Source: ChEMBL document CHEMBL3885861, “Open TG-GATES”
# Species on record: Rattus norvegicus
# Assay: Open TG-GATES - Regimen: Single
# Type: toxicity, organism-based, Sprague-Dawley
# Parameters: regimen Single, gender Male, age 6 weeks
# Details: in vivo, po, 100 mg/kg, route gavage, dose level Low; for APTT / Bas / Eos / Fbg / Hb / Ht / Lym / MCV / Mono / Neu / PT / Plat / RBC / Ret / WBC / MCH / MCHC: tissue Blood; for KIDNEY_L / KIDNEY_R / KIDNEY_TOTAL: tissue Kidney; for LIVER: tissue Liver; for ALP / ALT / AST / BUN / CRE / Ca / DBIL / GLC / IP / K / LDH / Na / PL / RALB / TBIL / TC / TG / TP / gamma-GTP: tissue Plasma
smiles,measurement,setting,value
O=C(O)c1cn(C2CC2)c2cc(N3CCNCC3)c(F)cc2c1=O [CIPROFLOXACIN],TERMINAL_BW,3 h,185.5 g
same,APTT,3 h,16.8 s
same,Bas,3 h,0%
same,Eos,3 h,0.8%
same,Fbg,3 h,213 mg/dL
same,Hb,3 h,12.9 g/dL
same,Ht,3 h,38.6%
same,Lym,3 h,78.4%
same,MCV,3 h,67.5 fL
same,Mono,3 h,8.4%
same,Neu,3 h,12.8%
same,PT,3 h,12.3 s
same,Plat,3 h,104.3 x10_4/uL
same,RBC,3 h,572.8 x10_4/ul
same,Ret,3 h,10.8%
same,WBC,3 h,106 x10_2/uL
same,KIDNEY_L,3 h,0.8 g
same,KIDNEY_R,3 h,0.9 g
same,KIDNEY_TOTAL,3 h,1.7 g
same,LIVER,3 h,9.1 g
same,ALP,3 h,856.2 IU/L
same,ALT,3 h,35 IU/L
same,AST,3 h,68.6 IU/L
same,BUN,3 h,12.4 mg/dL
same,CRE,3 h,0.5 mg/dL
same,Ca,3 h,11.2 mg/dL
same,DBIL,3 h,0.018 mg/dL
same,GLC,3 h,192 mg/dL
same,IP,3 h,9.8 mg/dL
same,K,3 h,4.9 meq/L
same,LDH,3 h,81.4 IU/L
same,Na,3 h,139 meq/L
same,PL,3 h,144.4 mg/dL
same,RALB,3 h,3.7 g/dL
same,TBIL,3 h,0.4 mg/dL
same,TC,3 h,84.6 mg/dL
same,TG,3 h,45.6 mg/dL
same,TP,3 h,5.5 g/dL
same,gamma-GTP,3 h,1.4 IU/L
same,TERMINAL_BW,6 h,179.2 g
same,APTT,6 h,17.2 s
same,Bas,6 h,0%
same,Eos,6 h,0.4%
same,Fbg,6 h,216.6 mg/dL
same,Hb,6 h,13 g/dL
same,Lym,6 h,73%
same,MCH,6 h,21.4 pg
same,MCHC,6 h,33.2%
same,MCV,6 h,64.5 fL
same,Mono,6 h,6%
same,PT,6 h,12.4 s
same,Plat,6 h,102.1 x10_4/uL
same,RBC,6 h,608.4 x10_4/ul
same,Ret,6 h,10.5%
same,WBC,6 h,119.3 x10_2/uL
same,KIDNEY_L,6 h,0.9 g
same,KIDNEY_R,6 h,0.9 g
same,KIDNEY_TOTAL,6 h,1.7 g
same,LIVER,6 h,8.1 g
same,ALP,6 h,779.4 IU/L
same,ALT,6 h,33.6 IU/L
same,AST,6 h,70.4 IU/L
same,BUN,6 h,10.8 mg/dL
same,CRE,6 h,0.5 mg/dL
same,Ca,6 h,11.4 mg/dL
same,DBIL,6 h,0.05 mg/dL
same,GLC,6 h,182.4 mg/dL
same,IP,6 h,10.3 mg/dL
same,K,6 h,5.4 meq/L
same,LDH,6 h,98 IU/L
same,Na,6 h,138.8 meq/L
same,PL,6 h,128.2 mg/dL
same,RALB,6 h,3.9 g/dL
same,TBIL,6 h,0.3 mg/dL
same,TC,6 h,71.4 mg/dL
same,TG,6 h,39.8 mg/dL
same,TP,6 h,5.6 g/dL
same,gamma-GTP,6 h,1 IU/L
same,TERMINAL_BW,9 h,174.2 g
same,APTT,9 h,16.2 s
same,Bas,9 h,0%
same,Eos,9 h,1%
same,Fbg,9 h,215 mg/dL
same,Hb,9 h,13.5 g/dL
same,Lym,9 h,77.2%
same,MCV,9 h,67.9 fL
same,Mono,9 h,5.2%
same,Neu,9 h,17%
same,PT,9 h,11.5 s
same,Plat,9 h,100.5 x10_4/uL
same,RBC,9 h,605.8 x10_4/ul
same,Ret,9 h,9.9%
same,WBC,9 h,77 x10_2/uL
same,KIDNEY_L,9 h,0.9 g
same,KIDNEY_R,9 h,0.9 g
same,KIDNEY_TOTAL,9 h,1.8 g
same,LIVER,9 h,7.3 g
same,ALP,9 h,813.2 IU/L
same,ALT,9 h,33.6 IU/L
same,AST,9 h,68.8 IU/L
same,BUN,9 h,11 mg/dL
same,CRE,9 h,0.5 mg/dL
same,Ca,9 h,10.9 mg/dL
same,DBIL,9 h,0.066 mg/dL
same,GLC,9 h,190 mg/dL
same,IP,9 h,11.5 mg/dL
same,K,9 h,4.9 meq/L
same,LDH,9 h,94.2 IU/L
same,Na,9 h,139.6 meq/L
same,PL,9 h,142.4 mg/dL
same,RALB,9 h,3.8 g/dL
same,TBIL,9 h,0.2 mg/dL
same,TC,9 h,88.4 mg/dL
same,TP,9 h,5.6 g/dL
same,gamma-GTP,9 h,1.4 IU/L
same,TERMINAL_BW,24 h,191.7 g
same,Bas,24 h,0%
same,Eos,24 h,1%
same,Fbg,24 h,218 mg/dL
same,Hb,24 h,13.5 g/dL
same,Ht,24 h,40.5%
same,Lym,24 h,77%
same,MCH,24 h,22.1 pg
same,MCHC,24 h,33.4%
same,MCV,24 h,66.3 fL
same,Mono,24 h,7%
same,Neu,24 h,15%
same,Plat,24 h,105.4 x10_4/uL
same,RBC,24 h,610.4 x10_4/ul
same,Ret,24 h,9.2%
same,WBC,24 h,102.8 x10_2/uL
same,KIDNEY_L,24 h,0.9 g
same,KIDNEY_R,24 h,0.9 g
same,KIDNEY_TOTAL,24 h,1.7 g
same,LIVER,24 h,8 g
same,ALP,24 h,953.6 IU/L
same,ALT,24 h,40.4 IU/L
same,AST,24 h,74.6 IU/L
same,BUN,24 h,17.2 mg/dL
same,CRE,24 h,0.5 mg/dL
same,Ca,24 h,11.2 mg/dL
same,DBIL,24 h,0.058 mg/dL
same,GLC,24 h,191.6 mg/dL
same,IP,24 h,9.2 mg/dL
same,K,24 h,4.7 meq/L
same,Na,24 h,139.4 meq/L
same,PL,24 h,161.4 mg/dL
same,RALB,24 h,3.8 g/dL
same,TBIL,24 h,0.3 mg/dL
same,TC,24 h,100 mg/dL
same,TP,24 h,5.9 g/dL
